This note sets out measurements from article PMC7958136, “ANT1 Activation and Inhibition Patterns Support the Fatty Acid Cycling Mechanism for Proton Transport” (International Journal of Molecular Sciences, 2021).

The EC50 is the concentration needed to bring the measured effect to its halfway point.

For one test, the target named is T1, recombinant murine ANT1 (mANT1; adenine nucleotide translocase 1) (Mus musculus, UniProt P48962).
T1 construct: gene Slc25a4
T1 sequence (P48962 2-298): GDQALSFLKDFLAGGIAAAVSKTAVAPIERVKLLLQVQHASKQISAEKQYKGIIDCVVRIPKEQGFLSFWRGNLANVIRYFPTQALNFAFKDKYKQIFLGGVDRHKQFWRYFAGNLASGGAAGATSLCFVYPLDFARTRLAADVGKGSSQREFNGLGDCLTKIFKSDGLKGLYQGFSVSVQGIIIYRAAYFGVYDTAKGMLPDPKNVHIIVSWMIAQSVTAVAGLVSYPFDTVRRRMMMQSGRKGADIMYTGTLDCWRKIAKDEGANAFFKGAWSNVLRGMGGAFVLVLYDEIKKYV
Put plainly: inhibition of fatty-acid-activated proton conductance, planar lipid bilayer with reconstituted ANT1. The format is biochemical.
Conditions: not given
As for `CO[C@H](C/C=C\C=C\CC/C=C/C[C@H](C)/C=C/C(=C\C(=O)O)CC(=O)O)/C(C)=C\C=C(/C)C(=O)O` [bongkrekic acid], the EC50 worked out at 32.3 ± 11.4 µM.

The test is the same for the next values; noted with them: read-out: EC50.
For `Nc1ncnc2c1ncn2[C@@H]1O[C@H](COP(=O)(O)OP(=O)(O)OP(=O)(O)O)[C@@H](O)[C@H]1O` [ATP], the EC50 worked out at 250 ± 34 µM.

As to `Nc1nc2c(ncn2[C@@H]2O[C@H](COP(=O)(O)OP(=O)(O)O)[C@@H](O)[C@H]2O)c(=O)[nH]1` [GDP], the EC50 amounted to 5410 ± 2010 µM.

With `Nc1ncnc2c1ncn2[C@@H]1O[C@H](COP(=O)(O)OP(=O)(O)O)[C@@H](O)[C@H]1O` [ADP], the EC50 came out at 1310 ± 537 µM.

With `Nc1nc2c(ncn2[C@@H]2O[C@H](COP(=O)(O)OP(=O)(O)OP(=O)(O)O)[C@@H](O)[C@H]2O)c(=O)[nH]1` [GTP], the EC50 worked out at 3320 ± 93 µM.

For `Nc1ncnc2c1ncn2[C@@H]1O[C@H](COP(=O)(O)O)[C@@H](O)[C@H]1O` [AMP], the concentration giving a half-maximal response (EC50) was 2660 ± 817 µM.
